Assay results as given in article PMC3196554 (Chemical research in toxicology, 2010).
Like-named read-outs stand apart in the source and are kept apart here.

How the values were obtained:
[1] = Acid hydrolysis of conjugates; assay type: physicochemical; details: 50% (v/v) glacial acetic acid or 1 N HCl, 80 °C for 8 h
[2] = for Amount in urine collected for 10 h after consumption of cooked beef: Mean ± SD of 3 independent measurements; for % Dose in urine collected for 10 h after consumption of cooked beef: metabolites as % of dose of parent MeIQx or PhIP; for Amount in urine, Overall mean: mean of 3 days
[3] = human, in vivo
[4] = cited from earlier work
[5] = system: P450 1A2; details: subjects given furafylline prior to cooked beef; cited from earlier work
[6] = system: P450 1A2; details: human liver microsomes, cited from earlier work

Row | SMILES | Amount in urine collected for 10 h after consumption of cooked beef ([2]; Subject S-001) | % Dose in urine collected for 10 h after consumption of cooked beef ([2]; Subject S-001) | Amount in urine collected for 10 h after consumption of cooked beef ([2]; Subject S-003) | % Dose in urine collected for 10 h after consumption of cooked beef ([2]; Subject S-003) | Amount in urine collected for 10 h after consumption of cooked beef ([2]; Subject S-005) | % Dose in urine collected for 10 h after consumption of cooked beef ([2]; Subject S-005) | Amount in urine collected for 10 h after consumption of cooked beef ([2]; Subject S-008) | % Dose in urine collected for 10 h after consumption of cooked beef ([2]; Subject S-008) | Amount in urine collected for 10 h after consumption of cooked beef ([2]; Subject S-009) | % Dose in urine collected for 10 h after consumption of cooked beef ([2]; Subject S-009) | Amount in urine collected for 10 h after consumption of cooked beef ([2]; Subject S-012) | % Dose in urine collected for 10 h after consumption of cooked beef ([2]; Subject S-012) | Amount in urine collected for 10 h after consumption of cooked beef ([2]; Subject S-013) | % Dose in urine collected for 10 h after consumption of cooked beef ([2]; Subject S-013) | Amount in urine collected for 10 h after consumption of cooked beef ([2]; Subject S-014) | % Dose in urine collected for 10 h after consumption of cooked beef ([2]; Subject S-014) | Amount in urine collected for 10 h after consumption of cooked beef ([2]; Subject S-015) | % Dose in urine collected for 10 h after consumption of cooked beef ([2]; Subject S-015) | Amount in urine collected for 10 h after consumption of cooked beef ([2]; Subject S-020) | % Dose in urine collected for 10 h after consumption of cooked beef ([2]; Subject S-020) | other results
1 | Cn1c(N[C@@H]2O[C@H](C(=O)O)[C@@H](O)[C@H](O)[C@H]2O)nc2ncc(-c3ccccc3)cc21 [PhIP-N^2-Gl, N^2-(ß-1-glucosidurony1)-2-amino-1-methy1-6-phenylimidazo[4,5-b]pyridine] | – | – | – | – | – | – | – | – | – | – | – | – | – | – | – | – | – | – | – | – | Behaviour under acid hydrolysis conditions [1]: quantitatively hydrolyzed to the parent amines; Amount present in urine samples ([2]; urine after meat consumption, LOQ ~50 pg/mL): ~ 50 pg/mL
2 | Cc1cnc2ccc3c(nc(NS(=O)(=O)O)n3C)c2n1 [MeIQx-N^2-SO3H, N^2-(3,8-dimethylimidazo[4,5-f]quinoxalin-2-yl)-sulfamic acid] | – | – | – | – | – | – | – | – | – | – | – | – | – | – | – | – | – | – | – | – | Behaviour under acid hydrolysis conditions [1]: quantitatively hydrolyzed to the parent amines
3 | Cn1c(N)nc2ncc(-c3ccc(O)cc3)cc21 [4'-HO-PhIP, 2-amino-1-methyl-6-(4′-hydroxy)-phenylimidazo[4,5-b]pyridine] | 20.1 ± 9.9 ng | 0.4 % Dose | 35.0 ± 3.4 ng | 0.7 % Dose | 41.7 ± 0.9 ng | 0.8 % Dose | 27.0 ± 3.8 ng | 0.5 % Dose | 25.2 ± 2.8 ng | 0.5 % Dose | 50.1 ± 2.8 ng | 1.0 % Dose | 37.2 ± 5.2 ng | 0.7 % Dose | 18.4 ± 1.2 ng | 0.4 % Dose | 18.3 ± 2.9 ng | 0.3 % Dose | 38.3 ± 2.5 ng | 0.7 % Dose | –
4 | Cc1cnc2cc3nc(N)n(C)c3cc2n1 [MeIgQx, 2-amino-1,7-dimethylimidazo[4,5-g]quinoxaline] | – | – | – | – | – | – | – | – | – | – | – | – | – | – | – | – | – | – | – | – | Increase in amount in urine following acid hydrolysis [3]: up to 5 fold
5 | Cn1c(N(O)[C@@H]2O[C@H](C(=O)O)[C@@H](O)[C@H](O)[C@H]2O)nc2ncc(-c3ccccc3)cc21 [HONH-PhIP-N^2-GI, N^2-(ß-1-glucosidurony1)-N-hydroxy-2-amino-1-methy1-6-phenylimidazo[4,5-b]pyridine] | 2201 ± 37.3 ng | 24.3 % Dose | 2692 ± 121 ng | 29.7 % Dose | 2112 ± 88.5 ng | 23.3 % Dose | 2198 ± 88.2 ng | 24.3 % Dose | 2009 ± 31.0 ng | 22.2 % Dose | 2621 ± 86.0 ng | 29.0 % Dose | 1848 ± 25.6 ng | 20.4 % Dose | 1274 ± 29.0 ng | 14.1 % Dose | 2067 ± 103 ng | 22.8 % Dose | 2223 ± 15.6 ng | 24.6 % Dose | –
6 | Cc1cnc2ccc3c(nc(N)n3C)c2n1 [MeIQx, 2-amino-3,8-dimethylimidazo[4,5-f]quinoxaline] | 80.3 ± 2.7 ng | 8.7 % Dose | 26.7 ± 1.6 ng | 2.9 % Dose | 32.4 ± 1.5 ng | 3.5 % Dose | 33.8 ± 1.3 ng | 3.7 % Dose | 45.7 ± 1.4 ng | 5.0 % Dose | 48.3 ± 1.9 ng | 5.2 % Dose | 60.9 ± 3.2 ng | 6.6 % Dose | 20.6 ± 0.9 ng | 2.2 % Dose | 39.2 ± 2.0 ng | 4.2 % Dose | 51.5 ± 2.2 ng | 5.6 % Dose | pKa [4]: 5.94; Share of elimination accounted for by P450 1A2 [5]: 90%; Vmax, oxidation of the 8-methyl group to form IQx-8-CH2OH [6]: 0.1 nmol/min/mg protein; Vmax, production of HONH-MeIQx [6]: 3.9 nmol/ min/mg of protein; Km ([6]; read-out: Km, oxidation of the 8-methyl group to form IQx-8-CH2OH): 3.1 µM; Km ([6]; read-out: Km, production of HONH-MeIQx): 15 µM; Amount in urine, Overall mean ([2]; Subject 9): 22.1 pg/mL; Amount in urine, Overall mean ([2]; Subject 14): 10.4 pg/mL; Amount in urine, Overall mean ([2]; Subject 20): 29.2 pg/mL
7 | Cc1cnc2ccc3c(nc(N[C@@H]4O[C@H](C(=O)O)[C@@H](O)[C@H](O)[C@H]4O)n3C)c2n1 [MeIQx-N^2-Gl, N^2-(ß-1-glucosiduronyl)-2-amino-3,8-dimethylimidazo[4,5-f]quinoxaline] | – | – | – | – | – | – | – | – | – | – | – | – | – | – | – | – | – | – | – | – | Behaviour under acid hydrolysis conditions [1]: quantitatively hydrolyzed to the parent amines
8 | Cn1c(=NO)n([C@@H]2O[C@H](C(=O)O)[C@@H](O)[C@H](O)[C@H]2O)c2ncc(-c3ccccc3)cc21 [HONH-PhIP-N3-GI, N3-(ß-1-glucosidurony1)-N-hydroxy-2-amino-1-methy1-6-phenylimidazo[4,5-b]pyridine] | 238 ± 7.4 ng | 2.6 % Dose | 189 ± 10.6 ng | 2.1 % Dose | 176 ± 4.2 ng | 1.9 % Dose | 222 ± 10.0 ng | 2.5 % Dose | 191 ± 5.5 ng | 2.1 % Dose | 319 ± 6.0 ng | 3.5 % Dose | 179 ± 7.0 ng | 2.0 % Dose | 89.5 ± 3.3 ng | 1.0 % Dose | 216 ± 12.0 ng | 2.4 % Dose | 253 ± 4.9 ng | 2.8 % Dose | –
